The values that follow are results of earlier work, collected in patent US20260345561A1, “METHODS AND COMPOSITIONS FOR USE IN TREATING AUTOSOMAL RECESSIVE POLYCYSTIC KIDNEY DISEASE (ARPKD)” (The General Hospital Corporation, priority 2022, published 2026).

Structures are written as SMILES.

The conditions of this series: racemic ketorolac 15 or 30 mg; Guo et al. 2015; cited from earlier work.

`O=C(c1ccccc1)c1ccc2n1CCC2C(=O)O` (racemic) [racemic ketorolac]: the R-ketorolac level result is recorded as “achieved likely therapeutic ranges of R-ketorolac”.
